Positions of bridges follow the written chain, without caps; N, C: chain ends. Non-standard residues stand in square brackets, D forms with d. Residues, ends and D or L forms follow the SMILES beside them. *: point of attachment. hPhe(3-Cl-4-CF3) = N[C@@H](CCc1ccc(C(F)(F)F)c(Cl)c1)C(=O)O; hPhe(3-F,4-CF3) = N[C@@H](CCc1ccc(C(F)(F)F)c(F)c1)C(=O)O; NMePhe(3-Cl) = CN[C@@H](Cc1cccc(Cl)c1)C(=O)O; NMePhe(4-Cl) = CN[C@@H](Cc1ccc(Cl)cc1)C(=O)O; NMePhe(2-Me) = CN[C@@H](Cc1ccccc1C)C(=O)O; NMeGly(cPent) = CN[C@H](C(=O)O)C1CCCC1; Phe(3-I) = N[C@@H](Cc1cccc(I)c1)C(=O)O; NMeY = CN[C@@H](Cc1ccc(O)cc1)C(=O)O; NMeCha = CN[C@@H](CC1CCCCC1)C(=O)O; NMeChg = CN[C@H](C(=O)O)C1CCCCC1; NMeF = CN[C@@H](Cc1ccccc1)C(=O)O; N(CH2CH2)2CF2 = FC1(F)CCN(*)CC1; NMeD = CN[C@@H](CC(=O)O)C(=O)O; NMeL = CN[C@@H](CC(C)C)C(=O)O; NMeV = CN[C@H](C(=O)O)C(C)C; d(β3hA) = C[C@@H](N)CC(=O)O; Morpholide = C1CN(*)CCO1; NMeA = CN[C@@H](C)C(=O)O; NMeAib = CNC(C)(C)C(=O)O; Piperidide = C1CCN(*)CC1; Pra = C#CC[C@H](N)C(=O)O; dNMeA = CN[C@H](C)C(=O)O; Ac5c = NC1(C(=O)O)CCCC1; Aze = O=C(O)[C@@H]1CCN1; Abu = CC[C@H](N)C(=O)O; CF3 = FC(F)(F)*; Sar = CNCC(=O)O
target: T1, Kras and SOS1 (biotin-tagged human Kras loaded with GDP, His-tagged human SOS1) (Homo sapiens, UniProt P01116, G12D); assay: Protein-protein interaction inhibition between Kras and SOS1 (KrasGl2D-SOS PPI) using AlphaScreen; assay type: binding; conditions: AlphaScreen; biotin-tagged human Kras loaded with GDP, His-tagged human SOS1; read-out: KRAS G12D-SOS PPI IC50
T1 construct: made in house; host or cells: E. coli (stated for Kras only)
T1 sequence (P01116 1-188 isoform P01116-2 G12D): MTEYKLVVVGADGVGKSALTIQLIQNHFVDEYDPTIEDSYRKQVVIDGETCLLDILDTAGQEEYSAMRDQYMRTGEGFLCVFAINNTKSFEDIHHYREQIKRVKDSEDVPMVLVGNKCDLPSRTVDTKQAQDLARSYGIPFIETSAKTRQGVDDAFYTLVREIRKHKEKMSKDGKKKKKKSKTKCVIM
In short: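 Energy transfer from nickel-chelate donor beads bound to His-SOS1 to streptavidin acceptor beads bound to biotin-Kras, expressed in E. coli and loaded with GDP after purification, was monitored. Donors were excited at 680 nm; singlet oxygen reaching acceptors gave emission read at 520-620 nm.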

Compound	IC50 [nM]
CC[C@H](C)[C@@H]1NC(=O)[C@H](C)N(C)C(=O)C[C@@H](C(=O)N2CCOCC2)N(C)C(=O)[C@H](C(C)C)N(C)C(=O)C2(CCCC2)NC(=O)[C@@H]2CCCN2C(=O)[C@H](CCc2ccc(C(F)(F)F)c(Cl)c2)NC(=O)[C@@H](C)N(C)C(=O)[C@H](CC2CCCCC2)N(C)C(=O)[C@@H]2CCCN2C(=O)CN(C)C1=O [Compound 1788] ([NMeA]I[Sar]P[NMeCha][dNMeA][hPhe(3-Cl-4-CF3)]P[Ac5c][NMeV][NMeD]-Morpholide; lactam N-11)	4.3
C#CC[C@@H]1NC(=O)[C@H](Cc2cccc(I)c2)NC(=O)CN(C)C(=O)[C@H](Cc2ccc(OC(F)(F)F)cc2)N(C)C(=O)CN(C)C(=O)CN(C)C(=O)[C@H]([C@@H](C)CC)NC(=O)[C@H](CC(C)C)N(C)C(=O)C[C@@H](C(=O)N2CCCCC2)N(C)C(=O)[C@H](CC(C)C)NC(=O)C(C)(C)N(C)C1=O [Compound 1219] ([NMeL]I[Sar][Sar][NMeY](CF3)[Sar][Phe(3-I)][Pra][NMeAib]L[NMeD]-Piperidide; lactam N-11)	16
CC[C@@H]1NC(=O)[C@H](CC(C)C)N(C)C(=O)C[C@@H](C(=O)N2CCCCC2)N(C)C(=O)[C@H](C2CCCCC2)N(C)C(=O)C2(CCCC2)NC(=O)[C@@H]2CCCN2C(=O)[C@H](CCc2ccc(C(F)(F)F)c(Cl)c2)NC(=O)CN(C)C(=O)[C@H](CC2CCCCC2)N(C)C(=O)CN(C)C(=O)CN(C)C1=O [Compound 1775] ([NMeL][Abu][Sar][Sar][NMeCha][Sar][hPhe(3-Cl-4-CF3)]P[Ac5c][NMeChg][NMeD]-Piperidide; lactam N-11)	4
CC[C@H](C)[C@@H]1NC(=O)[C@H](CC(C)C)N(C)C(=O)C[C@@H](C)NC(=O)[C@H](C(C)C)N(C)C(=O)C2(CCCC2)NC(=O)[C@@H]2CCCN2C(=O)[C@H](CCc2ccc(C(F)(F)F)c(Cl)c2)NC(=O)CN(C)C(=O)[C@H](Cc2ccccc2C)N(C)C(=O)CN(C)C(=O)CN(C)C1=O [Compound 1614] (cyclo([Ac5c][NMeV][d(β3hA)][NMeL]I[Sar][Sar][NMePhe(2-Me)][Sar][hPhe(3-Cl-4-CF3)]P))	51
CC[C@H](C)[C@@H]1NC(=O)[C@H](C)N(C)C(=O)C[C@@H](C)NC(=O)[C@H](C(C)C)N(C)C(=O)[C@H](Cc2ccccc2)N(C)C(=O)[C@H](CC(C)C)N(C)C(=O)[C@H](CCc2ccc(C(F)(F)F)c(F)c2)NC(=O)CN(C)C(=O)[C@H](Cc2ccc(Cl)cc2)N(C)C(=O)[C@@H]2CCN2C(=O)CN(C)C1=O [Compound 782] (cyclo([Aze][NMePhe(4-Cl)][Sar][hPhe(3-F,4-CF3)][NMeL][NMeF][NMeV][d(β3hA)][NMeA]I[Sar]))	21
CC[C@H](C)[C@@H]1NC(=O)[C@H](C)N(C)C(=O)C[C@@H](C)NC(=O)[C@H](C(C)C)N(C)C(=O)C2(CCCC2)NC(=O)[C@@H]2CCCN2C(=O)[C@H](CCc2ccc(C(F)(F)F)c(Cl)c2)NC(=O)[C@@H](C)N(C)C(=O)[C@H](CC2CCCCC2)N(C)C(=O)CN(C)C(=O)[C@@H]2CCN2C1=O [Compound 2010] (cyclo([Ac5c][NMeV][d(β3hA)][NMeA]I[Aze][Sar][NMeCha][dNMeA][hPhe(3-Cl-4-CF3)]P))	220
CC[C@H](C)[C@@H]1NC(=O)[C@H](C)N(C)C(=O)C[C@@H](C)NC(=O)[C@H](C2CCCC2)N(C)C(=O)C2(CCCC2)NC(=O)[C@@H]2CCCN2C(=O)[C@H](CCc2ccc(C(F)(F)F)c(Cl)c2)NC(=O)[C@@H](C)N(C)C(=O)[C@H](Cc2cccc(Cl)c2)N(C)C(=O)[C@@H]2CCN2C(=O)[C@H](C)N(C)C1=O [Compound 42] (cyclo([Ac5c][NMeGly(cPent)][d(β3hA)][NMeA]I[NMeA][Aze][NMePhe(3-Cl)][dNMeA][hPhe(3-Cl-4-CF3)]P))	190
CC[C@@H]1NC(=O)[C@H](Cc2cccc(I)c2)NC(=O)CN(C)C(=O)[C@H](Cc2ccc(Cl)cc2)N(C)C(=O)CN(C)C(=O)CN(C)C(=O)[C@H]([C@@H](C)CC)NC(=O)[C@H](CC(C)C)N(C)C(=O)C[C@@H](C(=O)N2CCCCC2)N(C)C(=O)[C@H](CC(C)C)NC(=O)C(C)(C)N(C)C1=O [Compound 457] ([NMeL]I[Sar][Sar][NMePhe(4-Cl)][Sar][Phe(3-I)][Abu][NMeAib]L[NMeD]-Piperidide; lactam N-11)	69
CC[C@@H]1NC(=O)[C@H](CC(=O)N2CCC(F)(F)CC2)N(C)C(=O)[C@H](CCc2ccc(C(F)(F)F)c(Cl)c2)NC(=O)CN(C)C(=O)[C@H](CC2CCCCC2)N(C)C(=O)CN(C)C(=O)CN(C)C(=O)[C@H]([C@@H](C)CC)NC(=O)[C@H](CC(C)C)N(C)C(=O)C[C@@H](C(=O)N2CCCCC2)N(C)C(=O)[C@H](C(C)C)N(C)C1=O [Compound 240] ([NMeL]I[Sar][Sar][NMeCha][Sar][hPhe(3-Cl-4-CF3)][NMeD](N(CH2CH2)2CF2)[Abu][NMeV][NMeD]-Piperidide; lactam N-11)	140

From patent US12371454B2, “Cyclic peptide compound having Kras inhibitory action” (priority 2019, dated 2025)
